Source: ChEMBL document CHEMBL1201862, “PubChem BioAssay data set” (2004)
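These data come from cells grown in 96-well plates and exposed to compound for 48 hours at five concentrations. GI50 is the concentration that inhibits growth by half.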 Calls of active or inactive are those of the source. No stated cut-off is given here; in the data, active = GI50 up to about 1.1 µM and inactive = higher.

How the values were obtained:
Assay in all cases: growth of human tumour cells (NCI), 48 h
A549 = tested on: A549
SK-MEL-2 = tested on: SK-MEL-2
U-251 = tested on: U-251
SF-539 = tested on: SF-539
K562 = tested on: K562
OVCAR-5 = tested on: OVCAR-5
SF-268 = tested on: SF-268
MDA-MB-435 = tested on: MDA-MB-435
T47D = tested on: T47D
SK-MEL-5 = tested on: SK-MEL-5
KM12 = tested on: KM12
UO-31 = tested on: UO-31
A498 = tested on: A498
OVCAR-3 = tested on: OVCAR-3
SNB-19 = tested on: SNB-19
TK-10 = tested on: TK-10
HL-60 = tested on: HL-60
HOP-62 = tested on: HOP-62
MDA-MB-231 = tested on: MDA-MB-231

Measured: GI50

CN1CCN(c2nc3ccccc3nc2C(=O)c2ccc(Cl)cc2)CC1
inactive: A549 54.2 µM | SK-MEL-2 58.5 µM | U-251 57.1 µM | SF-539 69.2 µM | K562 40.8 µM | OVCAR-5 > 100 µM | SF-268 46.9 µM | MDA-MB-435 44.5 µM | T47D 45.6 µM | SK-MEL-5 14.5 µM | KM12 35.1 µM | UO-31 31 µM | A498 41.7 µM | OVCAR-3 44 µM | SNB-19 > 100 µM | TK-10 35.6 µM | HL-60 31 µM | HOP-62 59.4 µM

CN1CC[C@]2(c3cccc(O)c3)CC(=O)/C(=C/c3ccccc3)[C@@H]1C2.[O-][Cl+3]([O-])([O-])O
inactive: MDA-MB-231 2.34 µM | A549 3.42 µM | SK-MEL-2 2.95 µM | U-251 2.54 µM | SF-539 1.95 µM | K562 1.64 µM | OVCAR-5 14.4 µM | SF-268 3.17 µM | MDA-MB-435 1.72 µM | SK-MEL-5 3.12 µM | KM12 3.61 µM | UO-31 2.51 µM | A498 6.98 µM | OVCAR-3 1.97 µM | SNB-19 5.4 µM | TK-10 13.9 µM | HL-60 1.8 µM | HOP-62 3.88 µM

CCOC(=O)c1cc(-c2cc(OC)c(OC)c([N+](=O)[O-])c2)c([N+](=O)[O-])n1C
inactive: A549 > 10 µM | SK-MEL-2 > 10 µM | U-251 4.26 µM | SF-539 8.32 µM | K562 2.83 µM | OVCAR-5 > 10 µM | SF-268 > 10 µM | MDA-MB-435 2.04 µM | KM12 4 µM | UO-31 > 10 µM | OVCAR-3 7.67 µM | SNB-19 > 10 µM | TK-10 > 10 µM | HL-60 3.37 µM

C[C@]12CCC(O)CC1=CC[C@@H]1[C@@H]2CC[C@]2(C)C(=O)[C@H](n3ccnc3)C[C@@H]12 (some centres not stated)
inactive: MDA-MB-231 > 100 µM | A549 91.4 µM | SK-MEL-2 27 µM | U-251 61.9 µM | SF-539 58.6 µM | K562 38 µM | OVCAR-5 > 100 µM | SF-268 > 100 µM | MDA-MB-435 43.1 µM | SK-MEL-5 16.2 µM | KM12 38.9 µM | UO-31 75.9 µM | A498 > 100 µM | OVCAR-3 > 100 µM | SNB-19 79.1 µM | TK-10 > 100 µM | HL-60 11.6 µM

CN1C(=O)C(O)CC1c1cccc(F)c1 (configuration not stated)
inactive: MDA-MB-231 > 100 µM | A549 > 100 µM | SK-MEL-2 > 100 µM | U-251 > 100 µM | SF-539 > 100 µM | K562 > 100 µM | OVCAR-5 > 100 µM | MDA-MB-435 > 100 µM | SK-MEL-5 > 100 µM | KM12 > 100 µM | UO-31 > 100 µM | A498 > 100 µM | OVCAR-3 > 100 µM | SNB-19 > 100 µM | HL-60 > 100 µM | HOP-62 > 100 µM

CC(=O)Oc1c(N2CCCCC2)c(C(=O)c2ccccc2)c(O)c2ccn(N(C)C)c12
inactive: MDA-MB-231 14 µM | A549 12.4 µM | SK-MEL-2 25.2 µM | U-251 16.7 µM | SF-539 18.5 µM | K562 34.4 µM | OVCAR-5 25.5 µM | SF-268 21.9 µM | MDA-MB-435 19.7 µM | SK-MEL-5 15.9 µM | KM12 10.9 µM | UO-31 17.6 µM | A498 15.3 µM | OVCAR-3 19.6 µM | SNB-19 25.4 µM | TK-10 16.7 µM | HL-60 6.38 µM | HOP-62 27.2 µM

O=S1(=O)c2ccccc2N2CCCc3cc(Cl)cc1c32
inactive: MDA-MB-231 37 µM | A549 > 100 µM | SK-MEL-2 44.2 µM | SF-539 35 µM | K562 > 100 µM | OVCAR-5 > 100 µM | SF-268 34.4 µM | MDA-MB-435 > 100 µM | SK-MEL-5 > 100 µM | KM12 > 100 µM | UO-31 > 100 µM | A498 > 100 µM | OVCAR-3 67.5 µM | SNB-19 56.6 µM | TK-10 > 10 µM | HL-60 > 100 µM | HOP-62 41.1 µM

COC(=O)C(Cc1nc2ccccc2nc1O)C(NO)C(=O)Nc1c(Cl)cc([N+](=O)[O-])cc1Cl (configuration not stated)
inactive: A549 38.5 µM | SK-MEL-2 32.1 µM | U-251 31.3 µM | SF-539 22.8 µM | K562 40.8 µM | SF-268 32.8 µM | SK-MEL-5 18 µM | KM12 33.7 µM | UO-31 36.1 µM | A498 21.4 µM | OVCAR-3 40.6 µM | SNB-19 40.1 µM | HOP-62 26 µM

C=CCC(NCc1ccccc1)[C@H](OCc1ccccc1)[C@@H]1COC(C)(C)O1 (some centres not stated)
inactive: MDA-MB-231 > 100 µM | A549 39 µM | SK-MEL-2 19.6 µM | U-251 37.6 µM | K562 23.7 µM | OVCAR-5 46.2 µM | SF-268 44.9 µM | MDA-MB-435 36.1 µM | SK-MEL-5 23 µM | KM12 29.8 µM | UO-31 22.9 µM | A498 45.6 µM | OVCAR-3 44.9 µM | SNB-19 72.8 µM | TK-10 23.8 µM | HOP-62 55.1 µM
